# Measured values from US20090042898A1, “USE OF COMPOUNDS ACTIVE ON THE SIGMA RECEPTOR FOR THE TREATMENT OF MECANICAL ALLODYNIA” (priority 2004, published 2009).
# How the values were obtained:
# [1] = system: capsaicin-induced allodynia; experiment: Von Frey model, capsaicin-induced mechanical allodynia; type: in vivo, mice
# Excerpt: The von Frey model is a model for allodynia, stimulated mechanically (mechanical allodynia).
# Interest of the model: • The injection of capsaicin to experimental animals produces acute pain followed by allodynia • The mechanisms involved in capsaicin-induced acute pain and allodynia are relatively well known (mainly activation of peripheral nociceptors and sensitization of spinal cord neurons, respectively)
# After habituation mice were according to FIG. 1 first treated with the test-compound (or not in controls). Then capsaicin (1% DMSO) is injected into their paw resulting in developing pain in the effected paw. The effected paw is then treated with a mechanical stimulus and the latency time before the paw is withdrawn is measured.
# 2 well known antisense Oligodesoxynucleotides (ODN) against the sigma 1 receptor (King et al. (1997) Eur J Pharmacol 331:R5-R6 and Ueda et al. (2001) J. Pharmacol. Exp. Ther. 298, 703-710) were synthesized and according to the protocol shown in FIG. 3a) given on 4 consecutive days i.c.v. followed by a wash-out period and von-Frey tests according to example 1.
# [2] = system: mechanical allodynia in mice exposed to the sciatic nerve injury; experiment: Von Frey model in mice exposed to sciatic nerve injury (partial sciatic nerve ligation); type: in vivo; details: FIG. 5, 60 mg/kg subcutaneous, Day 11 after surgery, ipsilateral
# Procedure: The partial sciatic nerve ligation model was used to induce neuropathic pain (Malmberg and Basbaum, Pain 76: 215-222, 1998). This model consists of injury to the sciatic nerve at mid-to high level. Briefly, mice were anaesthetized with halothane (induction: 3%; surgery: 1%) and the common sciatic nerve was exposed at the level of the mid-thigh of the right paw. In control animals (sham-operated mice), an identical dissection was performed on the right paw except that the sciatic nerve was not ligated (Control). Nociceptive sensitivity was then measured was quantified by measuring the hind paw withdrawal response to von Frey filament stimulation as mentioned above. Animals underwent surgery on day 0; 11 days after surgery BD-1063 was injected subcutaneously in one group and the responses to mechanical stimuli were determined by means of the von Frey model in this and the none-treated group (before surgery) a reference value was measured in order to determine a baseline value.
# sigma receptor = details: Sigma 1 and Sigma 2 for pentazocine; cited from earlier work
smiles,measurement,setting,value
O=C(OCCN1CCOCC1)C1(c2ccccc2)CCCCC1 [PRE-084],effect of sigma receptor agonist on the effect of NE-100,"[1]; FIG. 2c, given with NE-100",counteracting the effect of NE-100
"CN1CCN(CCc2ccc(Cl)c(Cl)c2)CC1 [BD-1063, 1-(3,4-dichlorophenethyl)-4-methylpiperazine]","effect on mechanical allodynia, von Frey model",[2],antagonizes mechanical allodynia in mice exposed to the (ipsilateral) sciatic nerve injury significantly
CCCN(CCC)CCc1ccc(OC)c(OCCc2ccccc2)c1 [NE-100],"analgesia in capsaicin-induced allodynia, dose dependency","[1]; FIG. 2a, mice, von Frey filaments",dose dependency of the treatment with NE-100 showing analgesia
same,efficacy depending on the force of the von-Frey filaments (0.5 g allodynia vs 4 g general pain),"[1]; FIG. 2b, NE-100 64 mg/kg",effective specifically in allodynia or mechanical allodynia and not general pain
same,affinity to the sigma receptor,sigma receptor,high affinity
CC(C)=CCN1CCC2(C)c3cc(O)ccc3CC1C2C (stereo not drawn) [pentazocine],affinity to the sigma receptor,sigma receptor,very high affinity
